# Data published in patent publication US20190159457A1, “Combinatorial Compositions of Benzoxaboroles and Biologic Agents” (Boragen, Inc., priority 2017, published 2019).
# How the values were obtained:
# Type in all cases: cell-based
# Bacillus subtilis = test: Toxicity of oxaborole compound on Bacillus subtilis (MIC); settings: 48 hours, about 37 °C, 1×10^5 CFU/mL
# Description: The final concentration of Bacillus subtilis was 1×10^5 CFU/mL.
# Plates sealed with clear polyester film (VWR) were incubated at a temperature of about 37° C. The progress of Bacillus subtilis growth was monitored at 48 hours.
# [1] = tested on: Fusarium oxysporum f sp. cubense tropical race 4 (FOC.TR4); test: Inhibition rate of fungal hyphae growth on PDA petri dish; settings: Bacillus subtilis −
# Description: (§1) The synergistic or additive effect of Bacillus subtilis in combination with an oxaborole compound on fungicidal compounds was evaluated by determining the inhibition rate of fungal growth on a petri dish. The oxaborole compound used for the example was BAG8. The inhibition rate was calculated as: inhibition %=(X−Y)/X*100, where X is the diameter of fungal hyphae grown on control without any fungicidal compound or beneficial bacteria.
# (§2) The ability of Bacillus subtilis to inhibit growth of the four example fungal pathogens was evaluated by determining the inhibition rate of fungal hyphae on the PDA petri dishes (diameter of 100 mm) with the bacteria (initial bacterial cells: 2000CFU). 0.2 mL of Bacillus subtilis (lx 10^3, 1×10^4, 1×10^5, 1×10^6FU/mL) was spread on the PDA plates. The plates were cultured at 37° C. overnight, followed by inoculating the fresh fungal agar plugs ( 3/16 inch, diameter). The PDA plates with fungal agar plugs were cultured at 25° C. for 4-7 days, and then diameters of hyphae were measured. The inhibition rate was calculated as: inhibition %=(X−Y)/X*100, where X is the diameter of fungal hyphae grown on control without the bacteria. Inhibition rate of 100% means that the fungus cannot grow on PDA medium.
# (§3) Testing was performed to compare inhibition performance of BAG8 by itself versus BAG8 in combination with Bacillis subtilis. Initially, the PDA plates (diameter of 100 mm) were prepared with various concentrations (0, 0.2, 0.5, 1, 2, 5 and 10 ug/mL) of the BAG8 compound;
# (§4) Then, 0.2 mL of Bacillus subtilis (1×10^4CFU/mL) were spread onto some of the PDA plates with fungicide compounds. The […] Botrytis cinerea, Fusarium oxysporum f sp. Cubense, Mycosphaerella graminicola, and Sclerotinia sclerotiorum.
# (§5) The PDA plates with the combined BAG8 and Bacillus subtilis were inoculated with the fresh fungal agar plugs ( 3/16 inch, diameters) and the plates were cultured at 25° C. for 4-7 days, and then diameters of hyphae were measured. The inhibition rate was calculated as: inhibition %=(X−Y)/X*100, where X is the diameter of fungal hyphae grown on control without the bacteria.
# [2] = tested on: Mycosphaerella graminicola (SLB); test: as above; settings: Zymoseptoria tritici, Bacillus subtilis −
# Description: as §1, §2, §3, §4, §5
# [3] = tested on: Botrytis cinerea B05.10 (B05.10); test: as above; settings: Bacillus subtilis −
# Description: as §1, §2, §3, §4, §5
# [4] = tested on: Sclerotinia sclerotiorum 1980 (Ss1980); test: as above; settings: Bacillus subtilis −
# Description: as §1, §2, §3, §4, §5
smiles,measurement,setting,value
"OB1OCc2cc(Cl)ccc21 [BAG8, 5-chlorobenzo[c][1,2]oxaborol-1(3H)-ol]",MIC,Bacillus subtilis,> 25 µg/mL
same,inhibition at 0.2 µg/mL,[1]; BAG8 0.2 ug/mL,9%
same,inhibition at 0.5 µg/mL,[1]; BAG8 0.5 ug/mL,47%
same,inhibition at 1 µg/mL,[1]; BAG8 1 ug/mL,95%
same,inhibition at 2 µg/mL,[1]; BAG8 2 ug/mL,94%
same,inhibition at 0.2 µg/mL,[2]; BAG8 0.2 ug/mL,6%
same,inhibition at 0.5 µg/mL,[2]; BAG8 0.5 ug/mL,38%
same,inhibition at 1 µg/mL,[2]; BAG8 1 ug/mL,93%
same,inhibition at 2 µg/mL,[2]; BAG8 2 ug/mL,96%
same,inhibition at 0.2 µg/mL,[3]; BAG8 0.2 ug/mL,10%
same,inhibition at 0.5 µg/mL,[3]; BAG8 0.5 ug/mL,23%
same,inhibition at 1 µg/mL,[3]; BAG8 1 ug/mL,69%
same,inhibition at 2 µg/mL,[3]; BAG8 2 ug/mL,98%
same,inhibition at 0.2 µg/mL,[4]; BAG8 0.2 ug/mL,12%
same,inhibition at 0.5 µg/mL,[4]; BAG8 0.5 ug/mL,48%
same,inhibition at 1 µg/mL,[4]; BAG8 1 ug/mL,94%
same,inhibition at 2 µg/mL,[4]; BAG8 2 ug/mL,98%
